From patent US20230181543A1, “TREATMENT OF CARM1-OVEREXPRESSING AND/OR ARID1A MUTANT CANCERS WITH IRE-1/XBP-1 INHIBITORS” (The Wistar Institute of Anatomy and Biology, priority 2020, published 2023)
“Also recorded” adds a separate entry of the source.

Key:
[1] = B-I09 treatment with CD8 depletion; format: in vivo; conditions: FIG. 44
[2] = system: Arid1a flox/flox;(Gt)Rosa26Pik3ca*H1047R OCCC tumors; experiment: Genetic OCCC mouse model (conditional inactivation of Arid1a, activation of Pik3ca)
UPK10 cells = experiment: Orthotopic UPK10 xenograft, B-I09 with PD-1 immune therapy; format: in vivo, B6 Mice; conditions: B-I09 50 mg per kg, 5 weekdays per week i.p., with PD-1 10 mg per kg twice per week
Procedure: (FIG. 19A) Western blotting of CARM1 and loading control […]-actin in UPK10, […] and OVCAR3 cells. (FIG. 19B) Schematic of experimental design for orthotopic injection UPK10 xenograft was shown. B6 Mice with indicated orthotopic injection of UPK10 cells were randomized into four different treatment groups and treated with control vehicle, B-[…] (50 mg per kg, 5 weekdays per week by i.p.), PD-1 (10 mg per kg, twice per week) or a combination. (FIG. 19C) Tumor weight was measured as a representation for tumor burden at the end of the treatment. coefficient of drug interaction (CDI) was calculated. (FIG. 19D) Tumor infiltrated lymphocytes (TILs) was analyzed by flow cytometry. The percentage of CD4^+ T cell, CD8^+ T cell, B cell in […] cell and macrophage were shown.

[3] = system: A1847 cells with or without CARM1 knockout; experiment: Western blotting of apoptotic markers (cleaved PARP, cleaved lamin A); format: cell-based; conditions: CARM1-high parental vs CARM1 knockout cells, B-I09 treatment
Text: (§1) FIGS. 4A-C. […] (FIG. 4A) Western blotting of apoptotic markers in A1847 cells with or without CARM1 knockout treated with or without B-I09. (FIGS. 4B-C) Schematics (FIG. 4B) and dose response curves (FIG. 4C) of A1847 cells with or without CARM1 knockout treated with B-I09 and rescued with BSA or oleic acid (OA).
FIGS. 15A-F. IRE-1a-XBP-1 pathway is required for CARM1-expressing OvCa. (FIG. 15A) Colony formation assays of wildtype and CARM1 knockout A 1847 and PEO4 cells treated with IRE-1α inhibitor B-I09 or 4μ8c. […] (FIG. 15C) Western blotting of apoptotic markers cleaved PARP and cleaved Lamin A and loading control β-actin. […] (FIG. 15D) The CARM1 levels in a panel of High Grade Serous Ovarian Cancer (HGSOC) cell lines were examined by western blotting. CARM1 is highly expressed in PEO4, OSAHO and A1847 cell lines. (FIG. 15E) Survival curves of colony formation assays of the panel of HGSOC cell lines treated with B-I09. (FIG. 15F) Comparison of IC50 of CARM1-high and CARM1-low HGSOC cell lines under treatment of B-I09.

XBP-1 = conditions: B-I09 20 μM, 48 h (FIG. 3A)
Text: (FIG. 3B) Dose response curve of B-I09 in wild-type and CARM1 knockout A1847 cells. (FIG. 3C) The expression of CARM1 in different HGSOC cell lines. (FIG. 3D) The IC50 of B-I09 in CARM1-low and high HGSOC cells.
Next, the inventors investigated whether the activated IRE-1-XBP-1 pathway is required for the survival of CARM1-high parental cells. […] To investigate whether the IRE-1-XBP-1 inhibition suppresses CARM1-high cells through inducing cell death, western blotting of apoptotic markers was performed. […] Therefore, to investigate whether lipid biosynthesis affects the selectivity of CARM1-high cells to inhibit the XBP-1 pathway, cells are treated with B-I09 to inhibit the XBP-1 pathway and rescued with control BSA or oleic acid (OA) (FIG. 4B), which is the upstream product for lipid biosynthesis (Yao et al., 2017).

[4] = system: hematological malignancies; conditions: cited from earlier work
ARID1A mutant tumor = ARID1A mutant tumor formation under B-I09; format: in vivo; conditions: FIG. 39, 40
ARID1A-mutant OCCC PDX = ARID1A-mutant OCCC PDX mice treated with B-I09; format: in vivo; conditions: ARID1A-mutant OCCC PDX mice (FIG. 45)
CARM1-high tumors = experiment: Orthotopic CARM1-high and CARM1-low PDX and A1847 xenograft mouse models; format: in vivo, mice; conditions: CARM1-high vs CARM1-low PDX; wild-type vs CARM1 knockout A1847 xenograft
Text: (FIG. 18A) Hematoxylin and eosin (HE) staining, and immunohistochemical staining with anti-CARM1 antibody in CARM1-low and CARM1-high PDX. (FIG. 18B) Confirmation of CARM1 expression levels in CARM1-low and -high PDXs by western blotting. A1847 and OVCAR3 cell lysates were used as positive control for CARM1-high and CARM1-low expression, respectively. (FIGS. 18C-D) Schematic of experimental design for PDX mouse model was shown. Mice with indicated orthotopic CARM1-high and CARM1-low PDXs were randomized into two groups and treated with vehicle control or B-I09. Tumor weight was measured as a representation for tumor burden at the end of the treatment. (FIGS. 18E-F) Schematic of experimental design for orthotopic injection A1847 xenograft was shown. Mice with indicated orthotopic injection of wild-type or CARM1 knockout A1847 cells were randomized into two groups and treated with vehicle control or B-I09. Tumor weight was measured as a representation for tumor burden at the end of the treatment. (FIG. 18G) Kaplan-Meier survival curves for indicated xenograft groups. P value was calculated by log rank test. (FIG. 18H) Immunohistochemistry for apoptotic marker cleaved caspase 3 and proliferation marker Ki67, histological scores (H-score) were calculated for three separate fields from five tumors from five individual mice from each of the indicated groups.

A1847 cells = experiment: Dose response of B-I09 in wild-type and CARM1 knockout A1847 cells; format: cell-based; conditions: wild-type vs CARM1 knockout A1847 cells (FIG. 3B)
EZH2 compared to EZH1 = EZH2 compared to EZH1 (Homo sapiens, UniProt Q15910); conditions: cited from earlier work
EZH2 compared to EZH1, sequence (Q15910 whole entry): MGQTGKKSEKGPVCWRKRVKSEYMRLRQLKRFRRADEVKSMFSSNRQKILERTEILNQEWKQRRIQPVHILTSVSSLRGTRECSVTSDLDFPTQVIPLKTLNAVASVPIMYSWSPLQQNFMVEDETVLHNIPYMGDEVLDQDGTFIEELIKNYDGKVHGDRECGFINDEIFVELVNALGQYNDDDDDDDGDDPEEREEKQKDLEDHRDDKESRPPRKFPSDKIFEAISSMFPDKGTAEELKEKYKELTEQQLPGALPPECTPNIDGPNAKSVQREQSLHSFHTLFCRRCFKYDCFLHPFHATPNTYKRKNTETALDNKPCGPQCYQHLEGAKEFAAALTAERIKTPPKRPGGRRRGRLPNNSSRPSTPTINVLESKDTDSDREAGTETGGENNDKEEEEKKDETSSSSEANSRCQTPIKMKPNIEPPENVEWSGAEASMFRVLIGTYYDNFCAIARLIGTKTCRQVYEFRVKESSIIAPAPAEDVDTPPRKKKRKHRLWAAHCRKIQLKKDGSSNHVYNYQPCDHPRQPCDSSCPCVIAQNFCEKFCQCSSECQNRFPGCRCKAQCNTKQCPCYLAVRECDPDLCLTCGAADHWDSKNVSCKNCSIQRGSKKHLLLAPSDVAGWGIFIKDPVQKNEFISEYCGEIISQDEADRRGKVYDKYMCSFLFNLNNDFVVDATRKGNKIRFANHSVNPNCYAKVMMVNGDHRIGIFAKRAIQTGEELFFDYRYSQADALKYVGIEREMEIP
EZH2 compared to EZH1, sequence (O75530 whole entry partner): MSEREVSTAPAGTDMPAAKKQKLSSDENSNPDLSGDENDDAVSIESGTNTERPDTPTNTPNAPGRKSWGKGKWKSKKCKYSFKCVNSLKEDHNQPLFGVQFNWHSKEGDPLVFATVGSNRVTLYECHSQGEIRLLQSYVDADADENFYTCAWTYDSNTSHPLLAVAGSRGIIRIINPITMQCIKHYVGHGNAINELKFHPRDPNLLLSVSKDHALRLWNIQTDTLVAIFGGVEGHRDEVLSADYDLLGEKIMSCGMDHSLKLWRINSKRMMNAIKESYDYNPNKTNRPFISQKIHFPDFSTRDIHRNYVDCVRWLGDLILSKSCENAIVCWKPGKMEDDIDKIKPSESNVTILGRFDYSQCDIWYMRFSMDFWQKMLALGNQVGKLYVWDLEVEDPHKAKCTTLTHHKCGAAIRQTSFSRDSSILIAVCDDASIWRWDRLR
EZH2 compared to EZH1, sequence (Q15022 whole entry partner): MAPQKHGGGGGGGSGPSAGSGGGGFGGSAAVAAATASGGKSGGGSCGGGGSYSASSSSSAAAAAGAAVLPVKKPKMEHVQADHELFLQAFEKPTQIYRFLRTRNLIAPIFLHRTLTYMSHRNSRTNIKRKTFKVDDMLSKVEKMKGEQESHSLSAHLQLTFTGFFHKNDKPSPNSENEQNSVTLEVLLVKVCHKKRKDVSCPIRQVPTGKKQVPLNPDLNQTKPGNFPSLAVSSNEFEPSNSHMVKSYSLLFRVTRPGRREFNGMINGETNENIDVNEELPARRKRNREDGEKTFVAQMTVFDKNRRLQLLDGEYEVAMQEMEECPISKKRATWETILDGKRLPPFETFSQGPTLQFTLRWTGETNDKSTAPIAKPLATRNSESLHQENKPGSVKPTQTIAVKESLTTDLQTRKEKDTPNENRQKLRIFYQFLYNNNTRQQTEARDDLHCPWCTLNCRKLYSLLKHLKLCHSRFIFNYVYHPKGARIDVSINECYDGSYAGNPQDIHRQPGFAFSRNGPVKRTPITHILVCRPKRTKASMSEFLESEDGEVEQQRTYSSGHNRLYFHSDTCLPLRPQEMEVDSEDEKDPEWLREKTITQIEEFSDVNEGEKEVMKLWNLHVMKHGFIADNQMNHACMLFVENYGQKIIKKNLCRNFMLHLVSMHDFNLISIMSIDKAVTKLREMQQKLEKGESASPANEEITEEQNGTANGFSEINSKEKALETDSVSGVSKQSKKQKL
EZH2 compared to EZH1, sequence (Q09028 whole entry partner): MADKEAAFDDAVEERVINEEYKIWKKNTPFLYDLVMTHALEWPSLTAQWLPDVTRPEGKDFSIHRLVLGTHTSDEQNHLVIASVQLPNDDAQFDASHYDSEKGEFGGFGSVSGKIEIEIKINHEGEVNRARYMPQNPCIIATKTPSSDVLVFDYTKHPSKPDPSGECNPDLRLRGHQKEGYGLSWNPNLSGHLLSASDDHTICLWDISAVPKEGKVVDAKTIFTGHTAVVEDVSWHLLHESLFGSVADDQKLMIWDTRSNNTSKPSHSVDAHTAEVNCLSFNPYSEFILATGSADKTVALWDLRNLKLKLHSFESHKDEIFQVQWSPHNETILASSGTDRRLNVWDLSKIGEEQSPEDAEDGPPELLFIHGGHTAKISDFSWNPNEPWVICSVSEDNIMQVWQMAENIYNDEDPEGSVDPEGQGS

RMG1 cells = experiment: Cisplatin and B-I09 combination in RMG1 wild-type and ARID1A knock-out cells; format: cell-based; conditions: RMG1 wild-type vs RMG1 ARID1A knock-out cells (FIG. 11); preliminary
Text: FIG. 11. […] IC50 of cisplatin in RMG1 wild-type compared to RMG1 ARID1A knock-out cells in combination with B-I09. Data from 3 replicates.
Resistance to cisplatin has been associated with an increase in ER stress-mediated cellular survival mechanisms in ovarian cancer (Avril et al., 2017; Lei et al., 2015; Xu et al., 2015). […] The inventors hypothesize that ER stress inhibition is synergistic with platinum-based chemotherapy in ARID1A-mutated OCCCs. To test this hypothesis, the inventors will treat ARID1A wild-type, ARID1A CRISPR-Cas9 knock-out, and ARID/A-mutant or wild-type OCCC cells with increasing concentrations of cisplatin or carboplatin. ER stress response induction will be analyzed by western blot and RT-qPCR analyzing the expression of ER stress response proteins such as IRE-1, XBP-1, PERK, ATF6 and BiP. They expect that platinum-based therapy-induces enhanced ER stress responses in ARID1A mutant/knock-out cells. ER stress response induction may sensitize them to treatment combination of platinum-based therapies and B-I09. […] The inventors will expand this analysis into a panel of ARID1A wild-type (such as RMG1, OVCA429 and KK) and mutant (such as TOV21G, OVTOKO, and OVISE) OCCC cell lines to further establish the efficacy of combination treatment of platinum-based therapy and B-I09. […]

[5] = system: A1847 cells with or without CARM1 knockout; experiment: Oleic acid rescue of B-I09-treated cells; format: cell-based; conditions: cells treated with B-I09, rescued with BSA or oleic acid (FIG. 4C); preliminary
Text: as §1

O=c1oc2c(C3OCCCO3)c(O)ccc2c2c1CNCC2 [B-I09]
effect of CD8 depletion on B-I09 treatment [1]: CD8 depletion does not affect B-I09 treatment | survival (Kaplan-Meier) ([2]; 50 mg/Kg B-I09, tumor bearing mice): enhances mouse survival | tumor growth / progression (tumor weight) ([2]; 50 mg/Kg B-I09 for 3 weeks (5 days on/2 off)): reduces OCCC tumor growth in vivo; also recorded: suppresses tumor progression | drug interaction on tumor weight (coefficient of drug interaction) (UPK10 cells): synergizes with PD-1 immune therapy | induction of apoptosis (cleaved PARP, cleaved lamin A) [3]: specifically induces apoptosis in CARM1-high cells; also recorded: specifically induced apoptosis in wildtype CARM1-high cells; also recorded: selectively induced apoptosis in CARM1-high but not CARM1-low or CARM1 knockout HGSOC cells | activation of XBP-1 / expression of active XBP-1s (XBP-1): inhibits the activation of XBP-1; also recorded: decreasing the expression of active XBP-1s | efficacy in hematological malignancies [4]: has been effective in treating hematological malignancies | ARID1A mutant tumor formation (ARID1A mutant tumor): selectively suppresses ARID1A mutant tumor formation | tumor growth (ARID1A-mutant OCCC PDX): suppresses tumor growth | sensitivity of tumors (tumor weight, survival) to B-I09 (CARM1-high tumors): CARM1-high tumors are sensitive to IRE-1α-XBP-1 inhibition | sensitivity to B-I09, dose response curve (A1847 cells): wild-type cells are significantly more sensitive to B-I09 compared with knockout cells

Cc1cc(C)c(CNC(=O)c2cc(-c3ccc(CN4CCOCC4)cc3)cc3c2cnn3C2CCCC2)c(=O)[nH]1 [EPZ005687]
selectivity for EZH2 over EZH1 (EZH2 compared to EZH1): 50 fold

N.N.[Cl][Pt][Cl] [cisplatin]
IC50 of cisplatin in combination with B-I09 (RMG1 cells): reduces the IC50 of cisplatin more effectively in RMG1 CRISPR/Cas9 KO cells compared to their wild-type parental control; also recorded: Loss of ARID1A promotes sensitivity to cisplatin and B-I09 combination

CCCCCCCC/C=C\CCCCCCCC(=O)O [oleic acid]
rescue from B-I09 inhibition of XBP-1 [5]: can rescue A1847 wild-type cells from the inhibition of XBP-1 but has no effect on CARM1 knockout cells
